For 23 molecules, IC50 results are on record in patent US20230399332A1, “IMIDAZO[1,2-a]PYRAZINE OR PYRAZOLO[1,5-a]PYRIMIDINE DERIVATIVE AND USE THEREOF” (TENCENT TECHNOLOGY (SHENZHEN) COMPANY LIMITED, priority 2022, published 2023).

In this assay the target is LSD1 (Homo sapiens (Human), UniProt O60341). As to the kind of experiment: LSD1 inhibitory activity on an enzyme level, AlphaScreen method. The assay is classed as biochemical. Particulars: in vitro. The protocol: This experiment was carried out to test the in vitro inhibitory activity of the compounds of the present disclosure against LSD1.
Experimental steps and a method: In this experiment, the in vitro inhibitory activity of the compounds of the present disclosure against LSD1 on an enzyme level was tested by using an AlphaScreen method. The experimental steps are described as follows: • a) preparation of a 1× buffer: • preparing a 1× buffer (improved trihydroxymethylaminomethane buffer); • b) continuous dilution of the compounds: • transferring the compounds of the present disclosure to a porous plate by using Echo at a final DMSO concentration of 1%; • c) preparation of an enzyme solution: • preparing an enzyme solution in the 1× buffer; • d) preparation of a substrate solution: • adding polypeptide to the 1× buffer to prepare a substrate solution; • e) transferring 5 μL of the enzyme solution or the 1× buffer to the porous plate; • f) conducting incubation at room temperature for 15 min; • g) adding 5 μL of the substrate solution to each well to induce a reaction; • h) conducting incubation at room temperature for 40 min; • i) preparing a 1× Alphalisa buffer; • j) preparation of a 1× Alphalisa buffer solution of receptors and donors: • adding 15 μL of a receptor and donor solution in dark light environment, and conducting incubation at room temperature for 60 min; • k) reading an endpoint in an EnSpire Alpha mode; and • l) data processing: • calculating an inhibitory value according to an equation 1:
Inh %=(Max−Signal)/(Max−Min)*100; and equation 1: • calculating an IC50 value by using XL-Fit according to an equation 2:
Y=Bottom+(Top-Bottom)/(1+(IC50/X)[…]), equation 2: • where Y indicates the inhibitory rate, and X indicates the concentration of a compound.
On the technique in general: In Alpha technology, singlet oxygen from a donor bead excites a nearby acceptor bead.

“4-(7-(4-aminopiperidin-1-yl)-3-(3-fluoro-4-methoxyphenyl)imidazo [1,5-a]pyrazin-2-yl)-2-fluorobenzonitrile [Compound 3]” returned an IC50 of 2.6 nM.
In the case of `COc1ccc(-c2c(-c3ccc(C#N)c(F)c3)nc3c(N[C@@H]4CC[C@H](N)C4)nccn23)cc1F` (relative stereo) [Compound 14, cis-4-(8-(((1R,3S)-3-aminocyclopentyl)amino)-3-(3-fluoro-4-methoxyphenyl)imidazo[1,2-a]pyrazin-2-yl)-2-fluorobenzonitrile], the midpoint of inhibition, the IC50, lay at 37 nM.
To `COc1ccc(-c2c(-c3ccc(C#N)c(F)c3)nc3c(N[C@@H]4CC[C@@H](N)C4)nccn23)cc1F` (relative stereo) [Compound 15, trans-4-(8-(((1R,3R)-3-aminocyclopentyl)amino)-3-(3-fluoro-4-methoxyphenyl)imidazo[1,2-a]pyrazin-2-yl)-2-fluorobenzonitrile] belongs 11 nM.
In the case of `COc1ccc(-c2c(-c3ccc(C#N)c(F)c3)nc3c(N4CCC(N)CC4)nccn23)cc1F` [Compound 1, 4-(8-(4-aminopiperidin-1-yl)-3-(3-fluoro-4-methoxyphenyl)imidazo [1,2-a]pyrazin-2-yl)-2-fluorobenzonitrile], the IC50 was found to be 7.4 nM.
With `COc1ccc(-c2c(-c3ccc(C#N)c(F)c3)nc3c(N4CCC[C@@H](N)C4)nccn23)cc1F` [Compound 2, (R)-4-(8-(3-aminopiperidin-1-yl)-3-(3-fluoro-4-methoxyphenyl)imidazo [1,2-a]pyrazin-2-yl)-2-fluorobenzonitrile] the figure was 1.3 nM; with `Cn1ncc2cc(-c3c(-c4ccc(C#N)c(F)c4)nc4c(N5CCC[C@@H](N)C5)nccn34)ccc21` [Compound 5, (R)-4-(8-(3-aminopiperidin-1-yl)-3-(1-methyll-1H-indazol-5-yl)imidazo [1,2-a]pyrazin-2-yl)-2-fluorobenzonitrile], 2.3 nM.
As to `COc1ccc(-c2c(-c3ccc(C#N)c(F)c3)nc3c(NCC4CCCN4)nccn23)cc1F` (centres unmarked) [Compound 6, 2-fluoro-4-(3-(3-fluoro-4-methoxyphenyl)-8-((pyrrolidin-2-ylmethyl)amino)imidazo[1,2-a]pyrazin-2-yl)benzonitrile], the IC50 was 45 nM.
To `COc1ccc(-c2c(-c3ccc(C#N)c(F)c3)nc3c(NC4CCCNC4)nccn23)cc1F` (centres unmarked) [Compound 7, 2-fluoro-4-(3-(3-fluoro-4-methoxyphenyl)-8-(piperidin-3-ylamino)imidazo[1,2-a]pyrazin-2-yl)benzonitrile] belongs 12 nM.
Regarding `Cn1ncc2cc(-c3c(-c4ccc(C#N)c(F)c4)nc4c(N5CCC[C@@H](N)C5)nccn34)ccc21` [Compound 8, (R)-4-(8-(3-aminopiperidin-1-yl)-3-(1-methyll-1H-indazol-5-yl)imidazo [1,2-a]pyrazin-2-yl)-2-fluorobenzonitrile], it took 1.7 nM to reach half-maximal inhibition (IC50).
As for `CN1CCOc2cc(-c3c(-c4ccc(C#N)c(F)c4)nc4c(N5CCC[C@@H](N)C5)nccn34)ccc21` [Compound 9, (R)-4-(8-(3-aminopiperidin-1-yl)-3-(4-methyll-3,4-dihydro-2H-benzo [b][1,4]oxazin-7-yl)imidazo[1,2-a]pyrazin-2-yl)-2-fluorobenzonitrile], 0.88 nM corresponded to half-maximal inhibition (IC50).
`N#Cc1ccc(-c2nc3c(N4CCC[C@@H](N)C4)nccn3c2-c2cnn(CC(F)(F)F)c2)cc1F` [Compound 10, (R)-4-(8-(3-aminopiperidin-1-yl)-3-(1-(2,2,2-trifluoroethyl)-1H-pyrazol-4-yl)imidazo[1,2-a]pyrazin-2-yl)-2-fluorobenzonitrile] came in with an IC50 of 7.5 nM.
With `CC(C)(O)Cn1ncc2cc(-c3c(-c4ccc(C#N)c(F)c4)nc4c(N5CCC[C@@H](N)C5)nccn34)ccc21` [Compound 11, (R)-4-(8-(3-aminopiperidin-1-yl)-3-(1-(2-hydroxy-2-methylpropyl)-1H-indazol-5-yl)imidazo[1,2-a]pyrazin-2-yl)-2-fluorobenzonitrile] the figure was 0.97 nM.
In turn, `COc1ccc(-c2c(-c3ccc(C#N)c(F)c3)nc3c(NCC4CCNC4)nccn23)cc1F` (centres unmarked) [Compound 13, 2-fluoro-4-(3-(3-fluoro-4-methoxyphenyl)-8-((pyrrolidin-3-ylmethyl)amino)imidazo[1,2-a]pyrazin-2-yl)benzonitrile] displayed an IC50 of 56 nM.
For `COc1ccc(-c2c(-c3ccc(C#N)c(F)c3)nc3c(NC4CCNC4)nccn23)cc1F` (centres unmarked) [Compound 16, 2-fluoro-4-(3-(3-fluoro-4-methoxyphenyl)-8-(pyrrolidin-3-ylamino)imidazo[1,2-a]pyrazin-2-yl)benzonitrile], half-maximal inhibition (IC50) was put at 15 nM.
To `Cn1cc2cc(-c3c(-c4ccc(C#N)c(F)c4)nc4c(N5CCC[C@@H](N)C5)nccn34)ccc2n1` [Compound 17, (R)-4-(8-(3-aminopiperidin-1-yl)-3-(2-methyll-2H-indazol-5-yl)imidazo [1,2-a]pyrazin-2-yl)-2-fluorobenzonitrile] belongs 6.3 nM; to `CC(C)(O)Cn1ncc2cc(-c3c(-c4ccc(C#N)c(F)c4)nc4c(N5CCC[C@@H](N)C5)nccn34)c(F)cc21` [Compound 19, (R)-4-(8-(3-aminopiperidin-1-yl)-3-(6-fluoro-1-(2-hydroxy-2-methylpropyl)-1H-indazol-5-yl)imidazo[1,2-a]pyrazin-2-yl)-2-fluorobenzonitrile], 0.71 nM.
Molecule `CC(C)(O)Cn1cc2cc(-c3c(-c4ccc(C#N)c(F)c4)nc4c(N5CCC[C@@H](N)C5)nccn34)c(F)cc2n1` [Compound 21, (R)-4-(8-(3-aminopiperidin-1-yl)-3-(6-fluoro-2-(2-hydroxy-2-methylpropyl)-2H-indazol-5-yl)imidazo[1,2-a]pyrazin-2-yl)-2-fluorobenzonitrile] gave an IC50 of 2.3 nM.
Regarding `CC(C)(O)Cc1ccc(-c2c(-c3ccc(C#N)c(F)c3)nc3c(N4CCC[C@@H](N)C4)nccn23)c(F)c1` [Compound 22, (R)-4-(8-(3-aminopiperidin-1-yl)-3-(2-fluoro-4-(2-hydroxy-2-methylpropyl)phenyl)imidazo[1,2-a]pyrazin-2-yl)-2-fluorobenzonitrile], inhibition was half-maximal at 2.5 nM (IC50).
In the case of `CC(C)(O)Cn1nnc2cc(-c3c(-c4ccc(C#N)c(F)c4)nc4c(N5CCC[C@H](N)C5)nccn34)c(F)cc21` [Compound 23, (S)-4-(8-(3-aminopiperidin-1-yl)-3-(6-fluoro-1-(2-hydroxy-2-methylpropyl)-1H-benzo[d][1,2,3]triazol-5-yl)imidazo[1,2-a]pyrazin-2-yl)-2-fluorobenzonitrile], the IC50 is 4.4 nM.
Regarding `CCC(O)(CC)Cn1nnc2cc(-c3c(-c4ccc(C#N)c(F)c4)nc4c(N5CCC[C@H](N)C5)nccn34)c(F)cc21` [Compound 26, (S)-4-(8-(3-aminopiperidin-1-yl)-3-(1-(2-ethyl-2-hydroxybutyl)-6-fluoro-1H-benzo[d][1,2,3]triazol-5-yl)imidazo[1,2-a]pyrazin-2-yl)-2-fluorobenzonitrile], half-maximal inhibition (IC50) required 0.7 nM.
In the case of `CC(C)(O)Cn1nnc2cc(-c3c(-c4ccc(C#N)c(F)c4)nc4c(N5[C@@H]6CC[C@H]5C[C@@H](NC(=O)OC(C)(C)C)C6)nccn34)c(F)cc21` [Compound 28, ((1R,3r,5S)-8-(2-(4-cyano-3-fluorophenyl)-3-(6-fluoro-1-(2-hydroxy-2-methylpropyl)-1H-benzo[d][1,2,3]triazol-5-yl)imidazo[1,2-a]pyrazin-8-yl)-8-azabicyclo[3.2.1]octane-3-yl)carbamate], the IC50 was determined as 5.5 nM.
Molecule `Cn1nnc2cc(-c3c(-c4ccc(C#N)c(F)c4)nc4c(N5CCC[C@@H](N)C5)nccn34)c(F)cc21` [Compound 30, (R)-4-(8-(3-aminopiperidin-1-yl)-3-(6-fluoro-1-methyl-1H-benzo[d][1,2,3]triazol-5-yl)imidazo[1,2-a]pyrazin-2-yl)-2-fluorobenzonitrile] displayed an IC50 of 1 nM.
Take “(R)4-(7-(3-aminopiperidin-1-yl)-3-(3-fluoro-4-methoxyphenyl)imidazo [1,5-a]pyrazin-2-yl)-2-fluorobenzonitrile [Compound 4]”: half-maximal inhibition (IC50) was put at 1 nM.

For orientation: IC50 means the concentration needed to halve the response being measured.
